Measurements published in publication PMC11233931, “Remodeling tumor‐associated macrophage for anti‐cancer effects by rational design of irreversible inhibition of mitogen‐activated protein kinase‐activated protein kinase 2” (MedComm, 2024).

What was measured:
Experiment in all cases: Eurofins kinase selectivity profile against 380 other human recombinant kinases (Table S2)
Type in all cases: biochemical
[1] = target: T1, 380 human recombinant protein kinases (Homo sapiens, UniProt O00141); conditions: SGK(h), read-out: Inhibition rate (%)
T1 construct: purchased Eurofins (Celle Lévescault)
T1 sequence (O00141 1-431): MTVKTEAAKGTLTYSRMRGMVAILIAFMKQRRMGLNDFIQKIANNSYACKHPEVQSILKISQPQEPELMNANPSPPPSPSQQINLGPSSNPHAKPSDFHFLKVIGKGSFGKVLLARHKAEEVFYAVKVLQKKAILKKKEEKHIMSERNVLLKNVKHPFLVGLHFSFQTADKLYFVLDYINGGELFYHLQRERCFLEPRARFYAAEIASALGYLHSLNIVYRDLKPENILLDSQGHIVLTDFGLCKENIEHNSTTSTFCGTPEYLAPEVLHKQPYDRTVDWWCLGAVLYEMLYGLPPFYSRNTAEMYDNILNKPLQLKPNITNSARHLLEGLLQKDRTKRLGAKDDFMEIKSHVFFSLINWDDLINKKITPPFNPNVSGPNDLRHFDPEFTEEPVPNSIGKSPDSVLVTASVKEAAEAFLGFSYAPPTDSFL
Method in brief: (§1)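 The inhibitor was sent to a contract lab and screened at various concentrations against 380 human recombinant protein kinases. This served as a counter-screen for MK2 specificity.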

[2] = target: T2, 380 human recombinant protein kinases (Homo sapiens, UniProt Q6PHR2); conditions: ULK3(h), read-out: Inhibition rate (%)
T2 construct: purchased Eurofins (Celle Lévescault)
T2 sequence (Q6PHR2 1-472): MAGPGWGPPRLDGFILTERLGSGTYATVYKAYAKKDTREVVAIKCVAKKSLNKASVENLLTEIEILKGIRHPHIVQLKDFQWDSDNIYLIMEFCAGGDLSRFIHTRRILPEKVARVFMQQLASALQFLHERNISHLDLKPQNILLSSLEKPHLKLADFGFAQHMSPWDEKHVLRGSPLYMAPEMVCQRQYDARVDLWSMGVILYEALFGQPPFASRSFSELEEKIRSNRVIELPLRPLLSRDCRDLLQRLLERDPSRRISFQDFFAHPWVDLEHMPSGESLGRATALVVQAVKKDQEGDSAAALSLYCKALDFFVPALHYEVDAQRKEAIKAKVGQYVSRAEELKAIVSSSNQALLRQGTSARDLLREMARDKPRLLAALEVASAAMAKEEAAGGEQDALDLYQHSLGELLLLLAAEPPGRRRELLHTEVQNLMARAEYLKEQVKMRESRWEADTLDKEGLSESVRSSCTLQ
Method in brief: as §1

[3] = target: T3, 380 human recombinant protein kinases (Homo sapiens, UniProt Q14012); conditions: CaMKI(h), read-out: Inhibition rate
T3 construct: purchased Eurofins (Celle Lévescault)
T3 sequence (Q14012 whole entry): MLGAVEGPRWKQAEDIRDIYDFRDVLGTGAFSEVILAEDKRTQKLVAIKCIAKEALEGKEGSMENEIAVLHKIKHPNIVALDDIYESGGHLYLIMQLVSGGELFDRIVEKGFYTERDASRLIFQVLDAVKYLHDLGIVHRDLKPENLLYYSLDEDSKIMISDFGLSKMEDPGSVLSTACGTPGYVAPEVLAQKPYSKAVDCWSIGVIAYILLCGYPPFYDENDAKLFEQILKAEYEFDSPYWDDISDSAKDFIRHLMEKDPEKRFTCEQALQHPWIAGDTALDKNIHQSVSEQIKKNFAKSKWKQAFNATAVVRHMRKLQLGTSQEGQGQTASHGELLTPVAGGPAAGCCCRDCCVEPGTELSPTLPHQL
Method in brief: as §1

[4] = target: T4, 380 human recombinant protein kinases (Homo sapiens, UniProt P34947); conditions: GRK5(h), read-out: Inhibition rate
T4 construct: purchased Eurofins (Celle Lévescault)
T4 sequence (P34947 whole entry): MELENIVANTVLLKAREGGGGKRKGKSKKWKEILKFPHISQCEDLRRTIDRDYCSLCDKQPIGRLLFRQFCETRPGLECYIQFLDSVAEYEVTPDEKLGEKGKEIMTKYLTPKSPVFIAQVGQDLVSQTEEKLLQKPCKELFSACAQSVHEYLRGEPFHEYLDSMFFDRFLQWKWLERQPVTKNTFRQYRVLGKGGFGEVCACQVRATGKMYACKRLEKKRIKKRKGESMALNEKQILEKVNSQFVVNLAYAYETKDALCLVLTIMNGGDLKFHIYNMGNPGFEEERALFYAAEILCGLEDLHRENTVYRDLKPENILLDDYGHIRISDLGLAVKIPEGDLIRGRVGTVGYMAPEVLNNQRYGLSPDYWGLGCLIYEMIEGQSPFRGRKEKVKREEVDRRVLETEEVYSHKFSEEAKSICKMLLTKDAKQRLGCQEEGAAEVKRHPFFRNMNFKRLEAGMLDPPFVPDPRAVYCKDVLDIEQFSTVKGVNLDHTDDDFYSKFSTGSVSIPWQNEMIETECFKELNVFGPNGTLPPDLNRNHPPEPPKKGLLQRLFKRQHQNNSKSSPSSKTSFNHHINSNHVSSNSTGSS
Method in brief: as §1

[5] = target: T5, 380 human recombinant protein kinases (Homo sapiens, UniProt Q9HBY8); conditions: SGK2(h), read-out: Inhibition rate (%)
T5 construct: purchased Eurofins (Celle Lévescault)
T5 sequence (Q9HBY8 1-367): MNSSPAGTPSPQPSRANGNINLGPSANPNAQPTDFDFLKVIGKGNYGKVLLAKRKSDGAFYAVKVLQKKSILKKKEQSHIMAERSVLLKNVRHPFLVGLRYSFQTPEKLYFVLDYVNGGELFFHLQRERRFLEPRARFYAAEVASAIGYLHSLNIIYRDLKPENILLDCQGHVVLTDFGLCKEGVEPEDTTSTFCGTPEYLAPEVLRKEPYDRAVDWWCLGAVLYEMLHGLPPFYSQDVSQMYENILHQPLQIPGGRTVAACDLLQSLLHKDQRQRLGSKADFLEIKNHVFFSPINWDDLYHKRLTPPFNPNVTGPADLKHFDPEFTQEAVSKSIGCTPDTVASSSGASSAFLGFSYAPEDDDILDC
Method in brief: as §1

[6] = target: T6, 380 human recombinant protein kinases (Homo sapiens, UniProt Q2M2I8); conditions: AAK1(h), read-out: Inhibition rate
T6 construct: purchased Eurofins (Celle Lévescault)
T6 sequence (Q2M2I8 whole entry): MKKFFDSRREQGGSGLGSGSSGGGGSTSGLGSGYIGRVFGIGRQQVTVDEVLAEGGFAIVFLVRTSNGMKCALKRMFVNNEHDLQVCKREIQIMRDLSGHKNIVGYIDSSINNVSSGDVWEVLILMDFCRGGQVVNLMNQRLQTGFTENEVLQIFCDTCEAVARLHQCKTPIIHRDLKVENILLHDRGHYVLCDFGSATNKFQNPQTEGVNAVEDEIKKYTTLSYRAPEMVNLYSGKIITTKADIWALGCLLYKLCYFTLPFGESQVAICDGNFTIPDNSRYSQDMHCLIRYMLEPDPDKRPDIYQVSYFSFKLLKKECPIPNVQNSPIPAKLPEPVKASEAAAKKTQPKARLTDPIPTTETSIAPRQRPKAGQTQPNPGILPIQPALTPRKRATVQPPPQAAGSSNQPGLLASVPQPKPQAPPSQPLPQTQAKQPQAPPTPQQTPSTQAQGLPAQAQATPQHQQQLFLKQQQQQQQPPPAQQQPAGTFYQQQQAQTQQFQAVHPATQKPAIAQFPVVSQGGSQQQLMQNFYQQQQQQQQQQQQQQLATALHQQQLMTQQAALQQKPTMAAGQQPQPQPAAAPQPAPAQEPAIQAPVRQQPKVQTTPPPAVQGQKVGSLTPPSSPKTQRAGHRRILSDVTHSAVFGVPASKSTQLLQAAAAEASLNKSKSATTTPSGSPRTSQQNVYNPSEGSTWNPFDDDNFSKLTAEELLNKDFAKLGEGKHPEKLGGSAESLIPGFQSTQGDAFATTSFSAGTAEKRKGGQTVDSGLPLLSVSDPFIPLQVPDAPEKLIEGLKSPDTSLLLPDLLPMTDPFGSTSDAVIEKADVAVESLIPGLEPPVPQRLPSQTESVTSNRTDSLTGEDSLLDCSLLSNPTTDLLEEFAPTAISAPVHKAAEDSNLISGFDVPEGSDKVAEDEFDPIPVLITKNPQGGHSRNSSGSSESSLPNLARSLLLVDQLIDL
Method in brief: as §1

## C=CC(=O)Nc1cc(-c2cc(-c3cc4c([nH]3)CCNC4=O)ccn2)ccc1OC(F)(F)F [compound 11]
[1]; 10 nM
  inhibition at 0.01 µM: 0%
[1]; 100 nM
  inhibition at 0.1 µM: 7%
[1]; 1000 nM
  inhibition at 1 µM: 1%
[2]; 10 nM
  inhibition at 0.01 µM: 8%
[2]; 100 nM
  inhibition at 0.1 µM: 3%
[2]; 1000 nM
  inhibition at 1 µM: -4%
[3]; 10 nM
  inhibition at 0.01 µM: -3%
[3]; 100 nM
  inhibition at 0.1 µM: -3%
[3]; 1000 nM
  inhibition at 1 µM: -6%
[4]; 10 nM
  inhibition at 0.01 µM: -6%
[4]; 100 nM
  inhibition at 0.1 µM: -2%
[4]; 1000 nM
  inhibition at 1 µM: 0%
[5]; 10 nM
  inhibition at 0.01 µM: -10%
[5]; 100 nM
  inhibition at 0.1 µM: -7%
[5]; 1000 nM
  inhibition at 1 µM: 0%
[6]; 10 nM
  inhibition at 0.01 µM: -1%
[6]; 100 nM
  inhibition at 0.1 µM: 11%
[6]; 1000 nM
  inhibition at 1 µM: 39%
